Measured values taken from US9487557B2, “Peptides for management of lactation” (MILEUTIS LTD., priority 2012, dated 2016).
Square brackets hold non-standard residues; d marks the D form. Ends that are not written are not given here. pS = N[C@@H](COP(=O)(O)O)C(=O)O

Assays:
Format in all cases: in vivo
[1] = system: mammary gland of lactating dairy cows; test: Field study of involution induction: change of pH in milk samples after a single intramammary infusion at dry-off; settings: for Changes of pH in milk samples, Day 1, Mean / Changes of pH in milk samples, Day 2, Mean / Changes of pH in milk samples, Day 3, Mean: difference in pH vs Day 0, single intramammary infusion, peptides 4 mg in 10 ml, casein hydrolyzate 20 ml; for Changes of pH in milk samples, Day 1, Mean: Day 1 post treatment; for Changes of pH in milk samples, Day 2, Mean: Day 2 post treatment; for Changes of pH in milk samples, Day 3, Mean: Day 3 post treatment
Experimental: (§1) A filed study was performed to assess the potential of a single intramammary dose of the synthetic peptides of the invention administered at dry (i.e. at the day in which milking is ceased), to induce rapid involution.
(§2) Total of 107 dairy cows were enrolled to the study, of which 45 received treatment and 62 served as a control. All cows were dairy cows at their first or further lactation that stand the inclusion/exclusion criteria. The study was a controlled blinded case-control study.
(§3) Case subjects received one dose by intramammary infusion of a particular peptide. Controls were lactating cows that received the following products by intramammary administration:
(§4) Five groups of 9 cows (total of 36 udder quarters per group) were scheduled as case groups. Each group was treated with one out of the five (5) phosphopeptides described in Example 1 hereinabove (P241210-01-01; 03; 05; 07 and 09). The peptides were administered once via intramammary infusion of 10 ml containing 4 mg peptide.
(§5) Set one: Five groups of 9 cows (total of 36 udder quarters per group) were scheduled as a first control set. Each group was treated with one out of the five (5) dephosphorylated peptides described in Example 1 hereinabove (P241210-01-02; 04; 06; 08 and 10). The peptides were administered once via intramammary infusion of 10 ml containing 4 mg peptide.
(§6) (i) Eleven cows (total of 44 udder quarters) treated with casein hydrolyzate (20 ml) administered once via intramammary infusion of 20 ml (around 1.8 mg/ml casein phosphopeptide (CPP), total=36 mg CPP for 20 ml)
(§7) All treatments (peptides, casein hydrolyzate and saline) were administered at the time point scheduled for cessation of milking (dry off). The day of administration was set as Day 0.
(§8) Sets of aseptic milk samples were collected in two separate vials once a day in the milking facility after the morning milking, on Day 0 and in post-treatment days 1, 2 and 3. The sampling time points were set to up to three days after treatment administration to ensure sufficient milk secretion for the measurements of all involution parameters. The volume of the samples was between 30 to 50 ml. The pH of the milk sample was measured in situ using a Cyberscan pH11 meter (Eutech Instruments, Singapore). The apparatus was calibrated each day by immersing the receptor in standard buffers of pH 7.0 and pH 4.01. Measurements were taken twice for each sample obtained from a mammary gland, with an interval of 30 seconds between measurements. pH measurement was repeated on-site by using the same sample vial. Before double-pH measurement, the milk sample vials were gently shaken three (3) times. After the pH measurement, the milk samples vials were kept in cool storage with a preservative product (Broad Spectrum Microtabs II—Bronopol and Metamycin—D&F Control System Inc., Two Technology Way, Norwood Mass. 02062 USA).
(§9) Endpoint Measures: pH, lactose and somatic cell counts (SCC) values from milk secretions at day 0 and during three (3) days post-treatment were taken. Results are described as the difference between the measures at each of the 3 days post treatment and the measured level at Day 0.
Table 2 below summarizes the effect of the peptides examined and of casein hydrolyzate (CNH) on the pH of milk samples taken 1, 2 and 3 days after the one-dose treatment with each peptide or CNH. The results are presented as the difference in pH value between each of the days post treatment and Day 0 (before treatment).

[2] = system: mammary gland of lactating dairy cows; test: Field study of involution induction: change in lactose content of milk samples after a single intramammary infusion at dry-off; settings: for Changes in Lactose content in milk samples, Day 1, Mean / Changes in Lactose content in milk samples, Day 2, Mean / Changes in Lactose content in milk samples, Day 3, Mean: difference in lactose concentration vs Day 0, single intramammary infusion, peptides 4 mg in 10 ml, casein hydrolyzate 20 ml; for Changes in Lactose content in milk samples, Day 1, Mean: Day 1 post treatment; for Changes in Lactose content in milk samples, Day 2, Mean: Day 2 post treatment; for Changes in Lactose content in milk samples, Day 3, Mean: Day 3 post treatment
Experimental: as §1, §2, §3, §4, §5, §6, §7, §8
Lactose values in the milk samples were determined at the Central Laboratory of Milk Quality, Caesaria Industrial Park, Israel, according to ISO 2266211DF 198:2007.
Data from six quarters were excluded from the analysis of lactose changes. Data from one of those quarters were omitted due to a missing initial value. For the other five quarters, lactose concentrations taken during the three follow-up days could not be analyzed due to a rapid mammary involution process, resulting in non-sufficient milk sample for lactose analysis.
as §9
One of the most significant outcomes of involution in terms of milk composition is a reduction in lactose content. Thus, lactose concentration was also measured in the milk samples taken before and after peptide or CNH administration as described for the pH measurements hereinabove. […]

[3] = system: mammary gland of lactating dairy cows; test: Field study of involution induction: change in somatic cell counts in milk samples after a single intramammary infusion at dry-off; settings: for Changes in Somatic Cell Counts in milk samples, Day 1, Mean / Changes in Somatic Cell Counts in milk samples, Day 2, Mean / Changes in Somatic Cell Counts in milk samples, Day 3, Mean: change vs Day 0, calculated from log transformation of raw data, single intramammary infusion, peptides 4 mg in 10 ml, casein hydrolyzate 20 ml; for Changes in Somatic Cell Counts in milk samples, Day 1, Mean: Day 1 post treatment; for Changes in Somatic Cell Counts in milk samples, Day 2, Mean: Day 2 post treatment; for Changes in Somatic Cell Counts in milk samples, Day 3, Mean: Day 3 post treatment
Experimental: as §1, §2, §3, §4, §5, §6, §7, §8
Somatic cell count was also determined in milk samples by Fossomatic 360 (Foss Electric, Hillerod, Denmark), and based on guidelines from the USA National Mastitis Council. Laboratory Handbook on Bovine Mastitis. 1999. Ed. National Mastitis Council, Verona, Wis. 53593 USA.
as §9
Additional parameter that may be used to establish the progression of the involution process is the presence of somatic cells within the milk. The increase in cell count within the milk is the result of high degree of apoptotic epithelial cell death associated with involution. […] The results presented in the table were calculated from log transformation of the raw data that were highly variable.

| Substance | Changes of pH in milk samples, Day 1, Mean [1] | Changes of pH in milk samples, Day 2, Mean [1] | Changes of pH in milk samples, Day 3, Mean [1] | Changes in Lactose content in milk samples, Day 1, Mean [2] | Changes in Lactose content in milk samples, Day 2, Mean [2] | Changes in Lactose content in milk samples, Day 3, Mean [2] | Changes in Somatic Cell Counts in milk samples, Day 1, Mean [3] | Changes in Somatic Cell Counts in milk samples, Day 2, Mean [3] | Changes in Somatic Cell Counts in milk samples, Day 3, Mean [3] | effect on the milk pH, in words ([1]; compared with the other peptides and casein hydrolyzate, particularly first 2 days after treatment) | effect on the reduction of lactose content, in words ([2]; all time points examined, compared with CNH) | induction of involution, overall conclusion in words ([3]; conclusion from pH, lactose and somatic cell count results) |
| --- | --- | --- | --- | --- | --- | --- | --- | --- | --- | --- | --- | --- |
| ESLSSSEE-NH2 [D] | 0.000 | −0.027 | 0.013 | −0.749 | −1.387 | −0.090 | 0.387 | 1.023 | −0.249 | – | – | – |
| Glu-Ser(P)-Leu-Ser(P)-Ser(P)-Ser(P)-Glu-Glu-NH2 (E[pS]L[pS][pS][pS]EE-NH2; N-terminus assumed; SMILES CC(C)C[C@H](NC(=O)[C@H](COP(=O)(O)O)NC(=O)[C@@H](N)CCC(=O)O)C(=O)N[C@@H](COP(=O)(O)O)C(=O)N[C@@H](COP(=O)(O)O)C(=O)N[C@@H](COP(=O)(O)O)C(=O)N[C@@H](CCC(=O)O)C(=O)N[C@@H](CCC(=O)O)C(N)=O) [D(p), casein-derived peptide, positive control] | 0.027 | −0.018 | 0.077 | −0.431 | −1.460 | −2.180 | 0.383 | 1.181 | 1.998 | – | – | – |
| KKSLSS-NH2 [A] | 0.048 | −0.002 | 0.072 | −0.463 | −1.268 | −1.773 | 0.911 | 1.571 | 2.090 | – | – | – |
| KSSSEE-NH2 | 0.047 | −0.028 | 0.115 | −0.368 | −1.531 | −1.675 | −0.186 | 0.843 | 1.492 | – | – | – |
| Lys-Lys-Ser(P)-Leu-Ser(P)-Ser(P)-Ser(P)-NH2 (KK[pS]L[pS][pS][pS]-NH2; N-terminus assumed; SMILES CC(C)C[C@H](NC(=O)[C@H](COP(=O)(O)O)NC(=O)[C@H](CCCCN)NC(=O)[C@@H](N)CCCCN)C(=O)N[C@@H](COP(=O)(O)O)C(=O)N[C@@H](COP(=O)(O)O)C(=O)N[C@@H](COP(=O)(O)O)C(N)=O) [A(p)] | 0.016 | 0.020 | 0.118 | −0.462 | −1.364 | −1.771 | 0.592 | 1.212 | 1.829 | – | – | – |
| Lys-Lys-Ser(P)-Ser(P)-NH2 (KK[pS][pS]-NH2; N-terminus assumed; SMILES NCCCC[C@H](NC(=O)[C@@H](N)CCCCN)C(=O)N[C@@H](COP(=O)(O)O)C(=O)N[C@@H](COP(=O)(O)O)C(N)=O) [C(p)] | 0.066 | 0.046 | 0.119 | −0.509 | −1.427 | −0.345 | −0.129 | 0.961 | 0.195 | – | – | – |
| Lys-Lys-Ser(P)-Ser(P)-Ser(P)-NH2 (KK[pS][pS][pS]-NH2; N-terminus assumed; SMILES NCCCC[C@H](NC(=O)[C@@H](N)CCCCN)C(=O)N[C@@H](COP(=O)(O)O)C(=O)N[C@@H](COP(=O)(O)O)C(=O)N[C@@H](COP(=O)(O)O)C(N)=O) [B(p)] | 0.171 | 0.165 | 0.163 | −1.250 | −2.013 | −2.521 | 3.129 | 3.099 | 3.451 | showed the most significant effect on the milk pH | higher effect on the reduction of lactose content compared to the effect of CNH | highly effective in inducing involution |
